US11077090B2, “Compounds and compositions and uses thereof” (Sunovion Pharmaceuticals Inc., priority 2016, dated 2021)
Like-named read-outs stand apart in the source and are kept apart here.

Tested on: compound-treated mice
Test: Neuropharmacological assay (SmartCube): behavioral activity signature and minimal effective dose
Format: in vivo
Conditions: for minimal effective dose: Mus musculus, ip; for AD: ADHD (probability of activity signature) / AG: analgesic (probability of activity signature) / AX: anxiolytic (probability of activity signature) / CE: cognitive enhancer (probability of activity signature) / DP: anti-depressant (probability of activity signature) / MS: mood stabilizer (probability of activity signature) / PS: anti-psychotic (probability of activity signature) / SD: sedative hypnotic (probability of activity signature) / UN: uncharacterized CNS activity (probability of activity signature): i.p. 15 min before test, most efficacious dose(s)
Outline: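 Video-recorded behavior is compared algorithmically against a reference-compound database, yielding class probabilities (best dose reported). Compounds given i.p. in NMP/PEG/propylene glycol 15 min pre-test at 3 doses; potency as MED, the dose (mpk, range usually 0.3–30) reaching ≥50% total activity.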

[1] = MED = dose having 50% or more total activity, read-out: Potency: minimal effective dose (MED), binned
[2] = MED = dose having 50% or more total activity, read-out: Potency: minimal effective dose (MED)

Row | Structure (SMILES) | minimal effective dose [1] | AD: ADHD (probability of activity signature) | AG: analgesic (probability of activity signature) | AX: anxiolytic (probability of activity signature) | CE: cognitive enhancer (probability of activity signature) | DP: anti-depressant (probability of activity signature) | MS: mood stabilizer (probability of activity signature) | PS: anti-psychotic (probability of activity signature) | SD: sedative hypnotic (probability of activity signature) | UN: uncharacterized CNS activity (probability of activity signature) | minimal effective dose [2] | Potency: minimal effective dose (MED) (MED = dose having 50% or more total activity)
1 | C[C@@H]1OCc2ccc3c(c2[C@@H]1N)CCCC3.Cl [Example 196] | 10 to 30 mg/kg | + (LOQ ≤ + <5%) | + (LOQ ≤ + <5%) | ++ (5% ≤ ++ <25%) | ++ (5% ≤ ++ <25%) | + (LOQ ≤ + <5%) | + (LOQ ≤ + <5%) | ++ (5% ≤ ++ <25%) | + (LOQ ≤ + <5%) | +++ (25% ≤ +++ <50%) |  | 
2 | Cc1ccc2c(c1)[C@H](N)[C@@H](C)COC2.Cl (relative stereo) [Example 75, trans-4,7-dimethyl-1,3,4,5-tetrahydrobenzo [c]oxepin-5-amine hydrochloride] |  | + (LOQ ≤ + <5%) | ++ (5% ≤ ++ <25%) | ++ (5% ≤ ++ <25%) | ++ (5% ≤ ++ <25%) | + (LOQ ≤ + <5%) | + (LOQ ≤ + <5%) | ++ (5% ≤ ++ <25%) | + (LOQ ≤ + <5%) | +++ (25% ≤ +++ <50%) | 10 to 30 mg/kg | 
3 | Cc1cc(C)c2c(c1)[C@H](N)COC2 (single isomer, unassigned) [Example 125] |  | + (LOQ ≤ + <5%) | + (LOQ ≤ + <5%) | ++ (5% ≤ ++ <25%) | ++ (5% ≤ ++ <25%) | ++ (5% ≤ ++ <25%) | + (LOQ ≤ + <5%) | ++ (5% ≤ ++ <25%) | ++ (5% ≤ ++ <25%) | ++++ (50% ≤ ++++) | < 3 mg/kg | 
4 | Cl.NC1COCCc2ccc3ccccc3c21 (stereo not drawn) [Example 32] |  | + (LOQ ≤ + <5%) | ++ (5% ≤ ++ <25%) | ++ (5% ≤ ++ <25%) | + (LOQ ≤ + <5%) | ++ (5% ≤ ++ <25%) | + (LOQ ≤ + <5%) | ++ (5% ≤ ++ <25%) | ++ (5% ≤ ++ <25%) | + (LOQ ≤ + <5%) |  | C (>10 to ≤30 mpk)
5 | Cl.NC1COCc2ccc3ccccc3c21 (stereo not drawn) [Example 13] |  | + (LOQ ≤ + <5%) | ++ (5% ≤ ++ <25%) | ++ (5% ≤ ++ <25%) | ++ (5% ≤ ++ <25%) | ++ (5% ≤ ++ <25%) | + (LOQ ≤ + <5%) | ++ (5% ≤ ++ <25%) | + (LOQ ≤ + <5%) | ++++ (50% ≤ ++++) | 3 to 10 mg/kg | 
6 | CC[C@H]1OCc2ccc(F)cc2[C@@H]1N [Example 181] | < 3 mg/kg | + (LOQ ≤ + <5%) | ++ (5% ≤ ++ <25%) | ++ (5% ≤ ++ <25%) | ++ (5% ≤ ++ <25%) | + (LOQ ≤ + <5%) | + (LOQ ≤ + <5%) | ++ (5% ≤ ++ <25%) | +++ (25% ≤ +++ <50%) | ++++ (50% ≤ ++++) |  | 
7 | Cc1cccc2c1[C@H](N)[C@@H](C)OC2.Cl [Example 83] |  | + (LOQ ≤ + <5%) | ++ (5% ≤ ++ <25%) | ++ (5% ≤ ++ <25%) | ++ (5% ≤ ++ <25%) | + (LOQ ≤ + <5%) | + (LOQ ≤ + <5%) | ++ (5% ≤ ++ <25%) | + (LOQ ≤ + <5%) | ++++ (50% ≤ ++++) | 3 to 10 mg/kg | 
8 | CN[C@@H]1COCc2ccc(C)cc21 [Example 141] |  | + (LOQ ≤ + <5%) | ++ (5% ≤ ++ <25%) | +++ (25% ≤ +++ <50%) | ++ (5% ≤ ++ <25%) | ++ (5% ≤ ++ <25%) | ++ (5% ≤ ++ <25%) | ++ (5% ≤ ++ <25%) | + (LOQ ≤ + <5%) | +++ (25% ≤ +++ <50%) | 3 to 10 mg/kg | 
9 | Cc1cccc2c1COC[C@H]2N (single isomer, unassigned) [Example 129] |  | + (LOQ ≤ + <5%) | ++ (5% ≤ ++ <25%) | +++ (25% ≤ +++ <50%) | ++ (5% ≤ ++ <25%) | ++ (5% ≤ ++ <25%) | + (LOQ ≤ + <5%) | ++ (5% ≤ ++ <25%) | ++ (5% ≤ ++ <25%) | +++ (25% ≤ +++ <50%) | 3 to 10 mg/kg | 
10 | C[C@H]1OCc2cc(F)ccc2[C@@H]1N.Cl (single isomer, unassigned) [Example 213] | 3 to 10 mg/kg | + (LOQ ≤ + <5%) | ++ (5% ≤ ++ <25%) | ++ (5% ≤ ++ <25%) | ++ (5% ≤ ++ <25%) | ++ (5% ≤ ++ <25%) | + (LOQ ≤ + <5%) | ++ (5% ≤ ++ <25%) | + (LOQ ≤ + <5%) | +++ (25% ≤ +++ <50%) |  | 
11 | C[C@@H]1OC[C@@H](N)c2cc(F)ccc21.Cl [Example 206] | 3 to 10 mg/kg | + (LOQ ≤ + <5%) | ++ (5% ≤ ++ <25%) | ++++ (50% ≤ ++++) | ++ (5% ≤ ++ <25%) | ++ (5% ≤ ++ <25%) | + (LOQ ≤ + <5%) | ++ (5% ≤ ++ <25%) | + (LOQ ≤ + <5%) | +++ (25% ≤ +++ <50%) |  | 
12 | Cc1cccc2c1[C@H](N)CO[C@H]2C [Example 227] | 3 to 10 mg/kg | + (LOQ ≤ + <5%) | ++ (5% ≤ ++ <25%) | ++ (5% ≤ ++ <25%) | + (LOQ ≤ + <5%) | + (LOQ ≤ + <5%) | + (LOQ ≤ + <5%) | ++ (5% ≤ ++ <25%) | + (LOQ ≤ + <5%) | ++++ (50% ≤ ++++) |  | 
13 | Cl.N[C@H]1c2ccccc2CO[C@@H]1CF (single isomer, unassigned) [Example 276, cis-3-(fluoromethyl)isochroman-4-amine hydrochloride] | 3 to 10 mg/kg | + (LOQ ≤ + <5%) | + (LOQ ≤ + <5%) | + (LOQ ≤ + <5%) | + (LOQ ≤ + <5%) | + (LOQ ≤ + <5%) | ++ (5% ≤ ++ <25%) | + (LOQ ≤ + <5%) | ++ (5% ≤ ++ <25%) | + (LOQ ≤ + <5%) |  | 
14 | C[C@H]1OCc2ccc3c(c2[C@@H]1N)CCCC3.Cl [Example 197] | 3 to 10 mg/kg | + (LOQ ≤ + <5%) | + (LOQ ≤ + <5%) | ++ (5% ≤ ++ <25%) | + (LOQ ≤ + <5%) | + (LOQ ≤ + <5%) | + (LOQ ≤ + <5%) | + (LOQ ≤ + <5%) | + (LOQ ≤ + <5%) | ++++ (50% ≤ ++++) |  | 
15 | CCN(C)C(=O)Oc1ccc2c(c1)COCC2N(C)C.Cl (stereo not drawn) [Example 283] | 3 to 10 mg/kg | ++ (5% ≤ ++ <25%) | + (LOQ ≤ + <5%) | ++ (5% ≤ ++ <25%) | + (LOQ ≤ + <5%) | ++ (5% ≤ ++ <25%) | +++ (25% ≤ +++ <50%) | ++ (5% ≤ ++ <25%) | ++ (5% ≤ ++ <25%) | ++ (5% ≤ ++ <25%) |  | 
